Measurements taken from patent US11485736B2 (KSQ Therapeutics, Inc., priority 2018, dated 2022).
Read-outs that look alike come from different tables or passages of the source.

What was measured:
[1] = ADME solubility determination at pH 2.0 and pH 7.4; type: physicochemical; conditions: aqueous buffer, thermodynamic from solid, LC-MS/MS
Method in brief: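 Dried residues of 10 mM DMSO stocks were shaken in PBS pH 7.4 or pH 2.0 for 24 hours at 25° C. and 1,100 rpm. After centrifugation, supernatants were quantified by LC-MS/MS against a standard of known concentration, applying a dilution factor.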

[2] = Liver microsomal stability, human liver microsomes; type: in vitro ADME; conditions: 1 μM compound, NADPH, read-out: t1/2 (min) in HLM
Method in brief: (§1)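 Compound (1 μM final) was incubated with prewarmed human or rat liver microsomes (1 mg/mL in 100 mM phosphate master mix) plus NADPH; aliquots at 0.5–30 minutes were quenched in cold acetonitrile and quantified by LC-MS/MS. Half-life came from the ln(% remaining) versus time slope, converted to CLint (μL/min/mg prot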

[3] = Liver microsomal stability, rat liver microsomes; type: in vitro ADME; conditions: 1 μM compound, NADPH, read-out: t1/2 (min) in RLM
Method in brief: as §1

[4] = PBS pH 2.0, shaken at 25° C. for 24 hours, read-out: Solubility at pH 2.0
[5] = PBS pH 7.4, shaken at 25° C. for 24 hours, read-out: Solubility at pH 7.4

What does the source list for `CCn1cc(C(F)(F)F)nc1-c1ccc([C@@H](C)n2ncc3cnc(-c4c(OC)ncnc4OC)nc32)cc1` [Example 89]?
solubility at 24 h [1, 4]: > 10 µM; solubility at 24 h [1, 5]: > 10 µM; half-life at 1 μM [2]: > 25 min; half-life at 1 μM [3]: > 25 min

What does the source list for `COc1ncnc(C2CC2)c1-c1ncc2ncn(Cc3ccc(-c4nc(C(F)(F)F)cn4C)cc3)c2n1` [Example 203]?
solubility at 24 h [1, 4]: > 10 µM; solubility at 24 h [1, 5]: > 10 µM; half-life at 1 μM [2]: < 25 min; half-life at 1 μM [3]: < 25 min

Which solubility at 24 h [1, 4] does the source give for `COc1ncnc(C2CC2(C)C)c1-c1ncc2cnn(Cc3ccc(-c4nc(C(F)(F)F)cn4C(C)C)cc3)c2n1` (stereo not shown) [Example 108] here?
The solubility at 24 h was > 10 µM.

And the solubility at 24 h [1, 5]?
The solubility at 24 h was < 10 µM.

What about the half-life at 1 μM [2] of the same molecule?
Its half-life at 1 μM is < 25 min.

And the half-life at 1 μM [3]?
Its half-life at 1 μM is < 25 min.

For `COc1ncnc(C2CC2)c1-c1ncc2c(OC)nn(C(C)c3ccc(-c4nc(C(F)(F)F)cn4CCF)cc3)c2n1` (stereo not shown) [Example 177], which solubility at 24 h [1, 4] is on record?
Its solubility at 24 h is < 10 µM.

What about the solubility at 24 h [1, 5] of the same molecule?
Its solubility at 24 h is < 10 µM.

What about the half-life at 1 μM [2] of the same molecule?
Its half-life at 1 μM is > 25 min.

And the half-life at 1 μM [3]?
The half-life at 1 μM was > 25 min.

For `CC(C)c1ccccc1-c1ncc2ncn(Cc3ccc(-c4nc(C(F)(F)F)cn4C)cc3)c2n1` [Example 202, 2-(2-Isopropylphenyl)-9-(4-(1-methyl-4-(trifluoromethyl)-1H-imidazol-2-yl)benzyl)-9H-purine], which solubility at 24 h [1, 4] is on record?
Its solubility at 24 h is > 10 µM.

What about the solubility at 24 h [1, 5] of the same molecule?
The solubility at 24 h was < 10 µM.

And the half-life at 1 μM [2]?
Its half-life at 1 μM is < 25 min.

What about the half-life at 1 μM [3] of the same molecule?
The half-life at 1 μM was < 25 min.

With `CC(C)c1ncccc1-c1ncc2cnn(Cc3ccc(-c4nc(C(F)(F)F)cn4C)cc3)c2n1` [Example 9, 6-(2-isopropylpyridin-3-yl)-1-(4-(1-methyl-4-(trifluoromethyl)-1H-imidazol-2-yl)benzyl)-1H-pyrazolo[3,4-d]pyrimidine] as the molecule, how does the solubility at 24 h [1, 4] read?
Its solubility at 24 h is > 10 µM.

What about the solubility at 24 h [1, 5] of the same molecule?
The solubility at 24 h was > 10 µM.

And the half-life at 1 μM [2]?
Its half-life at 1 μM is < 25 min.

What about the half-life at 1 μM [3] of the same molecule?
Its half-life at 1 μM is < 25 min.

Which solubility at 24 h [1, 4] does the source give for `COc1cnn(C2CC2)c1-c1ncc2cnn(Cc3ccc(-c4nc(C(F)(F)F)cn4C(C)C)cc3)c2n1` [Example 83] here?
Its solubility at 24 h is > 10 µM.

And the solubility at 24 h [1, 5]?
Its solubility at 24 h is < 10 µM.

And the half-life at 1 μM [2]?
The half-life at 1 μM was < 25 min.

What about the half-life at 1 μM [3] of the same molecule?
Its half-life at 1 μM is < 25 min.

Which solubility at 24 h [1, 4] does the source give for `COc1ncnc(C2CC2)c1-c1ncc2cnn(Cc3ccc(-c4nc(C(F)(F)F)c(Br)n4C)cc3)c2n1` [Example 163] here?
The solubility at 24 h was < 10 µM.

What about the solubility at 24 h [1, 5] of the same molecule?
The solubility at 24 h was < 10 µM.

And the half-life at 1 μM [2]?
The half-life at 1 μM was > 25 min.

What about the half-life at 1 μM [3] of the same molecule?
The half-life at 1 μM was > 25 min.

For `CCn1cc(C(F)(F)F)nc1-c1ccc([C@@H](C)n2ncc3cnc(-c4c(OC)ncnc4C4CC4)nc32)cc1` (single isomer, unassigned) [Example 95], which solubility at 24 h [1, 4] is on record?
Its solubility at 24 h is > 10 µM.

What about the solubility at 24 h [1, 5] of the same molecule?
Its solubility at 24 h is < 10 µM.

What about the half-life at 1 μM [2] of the same molecule?
The half-life at 1 μM was > 25 min.

And the half-life at 1 μM [3]?
Its half-life at 1 μM is < 25 min.

For `CCn1cc(C(F)(F)F)nc1-c1ccc(Cn2ncc3cnc(-c4c(C5CC5)cnn4CC)nc32)cc1` [Example 68], which solubility at 24 h [1, 4] is on record?
Its solubility at 24 h is < 10 µM.

And the solubility at 24 h [1, 5]?
The solubility at 24 h was < 10 µM.

What about the half-life at 1 μM [2] of the same molecule?
Its half-life at 1 μM is < 25 min.

What about the half-life at 1 μM [3] of the same molecule?
The half-life at 1 μM was < 25 min.

Which results are given for `CCn1cc(C(F)(F)F)nc1-c1ccc([C@H](C)n2ncc3cnc(-c4c(OC)ncnc4C4CC4)nc32)cc1F` [Example 96]?
solubility at 24 h [1, 4]: < 10 µM; solubility at 24 h [1, 5]: < 10 µM; half-life at 1 μM [2]: > 25 min; half-life at 1 μM [3]: > 25 min

What does the source list for `COCC(C)n1cc(C(F)(F)F)nc1-c1ccc(Cn2ncc3cnc(-c4c(OC)ncnc4C4CC4)nc32)cc1` (stereo not shown) [Example 150, 6-(4-cyclopropyl-6-methoxypyrimidin-5-yl)-1-(4-(1-(1-methoxypropan-2-yl)-4-(trifluoromethyl)-1H-imidazol-2-yl)benzyl)-1H-pyrazolo[3,4-d]pyrimidine]?
solubility at 24 h [1, 4]: > 10 µM; solubility at 24 h [1, 5]: > 10 µM; half-life at 1 μM [2]: < 25 min; half-life at 1 μM [3]: < 25 min

For `COc1ncnc(C2CC2)c1-c1ncc2cnn(Cc3ccc(-c4nc(C(F)(F)F)n(C)n4)cc3)c2n1` [Example 85], which solubility at 24 h [1, 4] is on record?
Its solubility at 24 h is < 10 µM.

And the solubility at 24 h [1, 5]?
Its solubility at 24 h is < 10 µM.

What about the half-life at 1 μM [2] of the same molecule?
The half-life at 1 μM was > 25 min.

And the half-life at 1 μM [3]?
The half-life at 1 μM was > 25 min.

What does the source list for `Cc1cc(C(F)F)nn1-c1ccc(Cn2ncc3cnc(-c4cccnc4C(C)C)nc32)cc1` [Example 32]?
solubility at 24 h [1, 4]: > 10 µM; solubility at 24 h [1, 5]: < 10 µM; half-life at 1 μM [2]: < 25 min; half-life at 1 μM [3]: < 25 min

Which results are given for `CCn1c(-c2ccc(Cn3nc(OC)c4cnc(-c5c(OC)ncnc5C5CC5)nc43)cc2)nc(C(F)(F)F)c1Br` [Example 189]?
solubility at 24 h [1, 4]: < 10 µM; solubility at 24 h [1, 5]: < 10 µM; half-life at 1 μM [2]: > 25 min; half-life at 1 μM [3]: > 25 min

For `COc1ncnc(OC)c1-c1ncc2cnn(Cc3ccc(-c4nc(C(F)(F)F)cn4C(C)C)cc3)c2n1` [Example 90], which solubility at 24 h [1, 4] is on record?
The solubility at 24 h was > 10 µM.

What about the solubility at 24 h [1, 5] of the same molecule?
Its solubility at 24 h is > 10 µM.

What about the half-life at 1 μM [2] of the same molecule?
The half-life at 1 μM was > 25 min.

And the half-life at 1 μM [3]?
The half-life at 1 μM was > 25 min.
